{
  "source": "patent EP0430884B1",
  "about": "“Insecticides and antiparasitic agents” (CIBA-GEIGY AG, priority 1989, dated 1991)",
  "system": "Haemonchus contortus und Trichostrongylus colubriformis",
  "test": "B-3 test on sheep infected with nematodes (worm egg count in faeces)",
  "format": "in vivo, Schafe",
  "text": "Milbemycine mit einer 13β-Alkylthiogruppe sind als Insektizide und Parasitizide aus der Europäischen Offenlegungsschrift EP-0,184,173 bzw. dem korrespondierenden Britischen Patent GB-2,167,751B bekannt. Die biologische Aktivität der 13β-Ethylthiomilbemycine kann man jedoch überraschenderweise durch Einführung der erfindungsgemässen, terminalen [drawing 26] (worin R₃ und X die unter Formel I angegebenen Bedeutungen haben) in die 2-Position der 13β-Ethylgruppe signifikant erhöhen. Vergleicht man z.B. die Verbindung Nr. 1.14 aus obigen Publikationen [drawing 27] mit der erfindungsgemässen Substanz Nr. 1.13 (vgl. Tab. 1) [drawing 28] gemäss dem weiter unten beschriebenen biologischen Beispiel B-3 an Schafen, die mit den Nematoden Haemonchus contortus und Trichostrongylus colubriformis infiziert wurden, so findet man bei einmaliger intraruminaler Applikation von 0,1 mg Aktivsubstanz/kg Körpergewicht folgende Resultate (angegeben in Reduktion der Wurmeier im Kot verglichen mit der Zahl der Eier bei infizierten, aber unbehandelten Schafen):\nDer Wirkstoff wird als Suspension formuliert mit einer Magensonde oder durch Injektion in den Pansen eines Schafes gegeben, das mit Haemonchus contortus und Trychostrongylus colubriformis künstlich infiziert worden ist. Pro Dosis werden 1 bis 3 Tiere verwendet. […]",
  "data": [
    {"smiles": "CC[C@H]1O[C@]2(CC[C@@H]1C)C[C@@H]1C[C@@H](C/C=C(\\C)[C@H](SCCc3ccc(NC(=O)OC)cc3)[C@@H](C)/C=C/C=C3\\CO[C@@H]4[C@H](O)C(C)=C[C@@H](C(=O)O1)[C@]34O)O2", "note": "[1.13, 13β-(2-[4-(Methoxycarbonylamino)phenyl]ethylthio)milbemycin A4]", "values": [
      {"measurement": "Reduktion der Wurmeier im Kot verglichen mit der Zahl der Eier bei infizierten, aber unbehandelten Schafen", "setting": "Versuch 1, single intraruminal application of 0,1 mg Aktivsubstanz/kg Körpergewicht", "value": 99, "unit": "%"},
      {"measurement": "Reduktion der Wurmeier im Kot verglichen mit der Zahl der Eier bei infizierten, aber unbehandelten Schafen", "setting": "Versuch 2 (Wiederholung von 1), single intraruminal application of 0,1 mg Aktivsubstanz/kg Körpergewicht", "value": 93, "unit": "%"}
    ]}
  ]
}
